According to publication PMC11447909, “Substrate Specificity of a Methyltransferase Involved in the Biosynthesis of the Lantibiotic Cacaoidin” (Biochemistry, 2024):
Bridge positions count the residues as written; N and C are the ends. Square brackets hold non-standard residues; d marks the D form. Ends that are not written are not given here. Abu = CC[C@H](N)C(=O)O; Dhb = C/C=C(\N)C(=O)O; Dha = C=C(N)C(=O)O

What was measured:
[1] = target: His6-CaoSC (methyltransferase of the cacaoidin biosynthetic gene cluster) (Streptomyces cacaoi CA-170360); test: SEC; analytical SEC of purified His6-tagged CaoSC
CaoSC = test: In vitro methylation by His6-CaoSC with SAM (MALDI-TOF MS); assay type: biochemical, Streptomyces cacaoi CA-170360; details: 50 μM peptide, 5 μM His6-CaoSC, 1 mM SAM, 20 mM HEPES pH 7.5, overnight, 37 °C
Protocol: For methylation, the 50 μL assay contained 50 μM peptide, 5 μM His6–CaoSC, and 1 mM SAM in 20 mM HEPES buffer (pH 7.5). After overnight reaction at 37 °C, the proteins were denatured by adding 5 μL of 2% TFA and centrifuged for 10 min at 4500 rpm in a microcentrifuge at room temperature. The supernatant was desalted using an EMD Millipore C18 ziptip, and the peptide was eluted and analyzed by MALDI-TOF MS as described above.

Substance: His6-CaoSC (methyltransferase of the cacaoidin biosynthetic gene cluster) (enzyme)
- stoichiometry N [1]: 2

Substance: A[Dha]APATIK [synthetic 8-residue peptide with a dehydroamino acid at position 2]
- methylation by CaoSC (number of methyl groups installed at N-terminus) (CaoSC): not accepted

Substance: nisin (I[Dhb]AI[Dha]LC[Abu]PGCK[Abu]GALMGCNMK[Abu]A[Abu]CHCSIHV[Dha]K; thioether 8-11, 13-19, 23-26, 25-28, 3-7; not fully specified (residues 7, 11, 19, 26, 28); UniProt P13068 24-57, looked up) [class I lanthipeptide, 34 residues, three dehydroamino acids, five Lan/MeLan rings; purchased from Sigma-Aldrich]
- methylation by CaoSC (number of methyl groups installed at N-terminus) (CaoSC): monomethylated
